“Also recorded” adds a separate entry of the source. Where no end group is shown, it is not given here.
Legend:
[1] = system: K3a,eRh2 coiled coil; assay: Thermal denaturation of metallopeptide coiled coils monitored by CD; assay type: physicochemical; details: for melting temperature (Tm) of coiled coil: equimolar mixture of E3X peptide and K3a,eRh2 in aq buffer, CD 222 nm
Description: FIG. 4 is a table detailing the thermal denaturation of metallopeptide coiled coils. The following standard conditions: equimolar mixtures of E3X and K3a,eRh2 in aq buffer (pH 5.9-6.2) were monitored by CD (222 nm) from −5 to 95° C. at 1° C./min. The peptide concentrations are 100 μM. The CD monitored is at 225 nm and in certain embodiments, the peptide concentration is 33 μM.
Rhodium(II) centers are capable of forming stabilizing secondary contacts at the periphery of a protein binding interface while examining the coiled-coil assembly of rhodium(II) metallopeptides with histidine-containing peptides. A rhodium(II) center linked to a coil at positions a and e of a heptad repeat abcdefg (See FIG. 4) would be proximal to position g of the complementary peptide, E3gX.
Circular Dichroism Spectroscopy: Thermal denaturation experiments (−5-105° C. with a gradient of 1° C./min) were performed on a Jasco-J810 spectropolarimeter with a Peltier temperature controller (Jasco PTC423S). Solutions of 1:1 E3-peptide and K3-metallopeptide (both components 100 or 33 μM) in aqueous buffer in a 0.1 cm sealed cell were analyzed, and ellipticity data were acquired at 222 nm (red data points, S-5). When imidazole additive was utilized, ellipticity data were acquired at 225 nm. Temperature denaturation curves were fit to a two-state unfolding model and plotted (black line, S-5) as fraction unfolded vs. temperature as described previously by Lavigne et al.8 Error associated with the non-linear least squared-determined Tm was determined using the freely available “Solver Statistics” macro for Microsoft Excel.

[2] = molecular target: T1, CAL PDZ domain (Homo sapiens, UniProt Q9HD26); assay: HSQC footprinting of 15N-CALP; assay type: binding; details: 125-μM peptide, 2.5% (v/v) DMSO
T1 construct: Expression and purification of the WT and mutant CAL PDZ domains were performed according to commonly described and known methods; made in house
Description: HSQC spectra of 15N-CALP determined separately (red) and in the presence of 125-μM E^RhVQSTRL (SEQ ID NO:7) metallopeptide (green) in 2.5% (v/v) DMSO.
The chemical shifts (δ) are reported in units of part per million (ppm) relative to solvent peak. HSQC footprinting: 25 μM N-labeled CAL PDZ protein was also subjected to H, N heteronuclear single quantum correlation spectroscopy (HSQC) analysis, as described, except that tris(2-carboxyethyl)phosphine was omitted from the final dialysis buffers. […] HSQC backbone crosspeaks were assigned by comparison with the previously assigned CALP apo spectrum.

[3] = molecular target: N1P1; assay: N1P1 affinity (uM)
Description: Table printed on a drawing sheet, Figure 9B
Title: Metallopeptide ligands for PDZ domains
Head of the field: N1P1 affinity (uM)
The patent's description of the figure: FIG. 9A is a table of metallopeptide inhibitors of CALP. [a], inhibitor equilibrium dissociation (Ki) constants were determined for cognate peptide/metallopeptide pairs. […] In embodiment, [c]
First copying reader's note: The fold values (22x, 95x and so on) are printed beside brackets joining each peptide/Rh-peptide pair and are repeated in both rows; the H301A block stands apart at the right, has no printed unit, and its rows are matched to the sequences by their height on the sheet.
Where the first naming reader finds the target: head: N1P1 affinity (uM)

[4] = molecular target: T2, full-length CAL (Homo sapiens, UniProt Q9HD26); assay: Capture (pulldown) inhibition assay in epithelial cell lysate; assay type: binding; details: CFBE4lo− cell lysates, BT-iCAL36 bait, n=3
T2 construct: Western blot of native CAL was captured from epithelial lysates; endogenous in cells; host or cells: CFBE41o- epithelial cell lysate
Description: Thus, the metalation improves inhibitor potency.
Capture inhibition assays: To determine the ability of inhibitor peptides to displace the interactions of full-length CAL in the presence of the epithelial-cell proteome, a capture inhibition assay was developed. Briefly, using published methods a biotin-conjugated peptide “bait” sequence (BT-iCAL36) was immobilized on streptavidin beads and incubated with clarified lysates of CFBE4lo− cells to capture full-length CAL in the presence of cellular proteins. […] Beads were washed and eluted, and bound proteins were separated by SDS-PAGE and immunoblotted using an α-CAL antibody. Band intensities were separately quantified and averaged (n=3).

[5] = molecular target: T3, CAL PDZ domain (CALP) (Homo sapiens, UniProt Q9HD26); assay: Fluorescence anisotropy inhibition binding assay (displacement of fluorescein-labeled iCAL36 reporter); details: wild-type CALP
T3 construct: Expression and purification of the WT and mutant CAL PDZ domains were performed according to commonly described and known methods; made in house
Description: Protein binding studies: Fluorescence anisotropy inhibition binding assays were performed using standard procedures. […] Following equilibration, fluorescence anisotropy values were determined using a Tecan Infinite M1000 plate reader (n=3). Inhibitor equilibrium dissociation (Ki) constants were estimated as described. DMSO and rhodium(II) acetate were used as negative controls for unlabeled and labeled peptides, respectively.

[6] = molecular target: T4, CALP (Homo sapiens, UniProt Q9HD26); assay: CALP affinity (uM)
T4 construct: Western blot of native CAL was captured from epithelial lysates; endogenous in cells; host or cells: CFBE41o- epithelial cell lysate
Description: Head of the field: CALP affinity (uM)

[7] = molecular target: T4, CALP; assay: Ki (μM)
Description: Head of the field: Ki (μM)

N[C@@H](CS)C(=O)O [E3gC]
coiled coil stability ([1]; assembly with K3a,eRh2): decreased stability

CC(=O)N[C@@H](CCC(=O)O)C(=O)N[C@H](C(=O)N[C@@H](CCC(N)=O)C(=O)N[C@@H](CO)C(=O)N[C@H](C(=O)N[C@@H](CCCNC(=N)N)C(=O)N[C@@H](CC(C)C)C(=O)O)[C@@H](C)O)C(C)C [EVQSTRL]
mode of inhibition [2]: competitive inhibitors

CC[C@H](C)[C@H](NC(=O)[C@@H](NC(=O)[C@H](CO)NC(=O)[C@@H](NC(=O)[C@@H]1CCCN1C(=O)[C@H](Cc1c[nH]c2ccccc12)NC(=O)[C@H](CCC(=O)O)NC(C)=O)[C@@H](C)O)[C@@H](C)CC)C(=O)O [EWPTSII]
Ki [3]: > 500 µM

CC(=O)N[C@@H](CCC(=O)O)C(=O)N[C@H](C(=O)N[C@@H](CCC(N)=O)C(=O)N[C@@H](CO)C(=O)N[C@H](C(=O)N[C@@H](CCCNC(=N)N)C(=O)N[C@@H](CC(C)C)C(=O)O)[C@@H](C)O)C(C)C [E^RhVQSTRL]
inhibition of CAL pulldown [4]: improved inhibition; also recorded: dose-dependent inhibition | mode of inhibition [2]: competitive inhibitors

CC[C@H](C)[C@H](NC(=O)[C@@H](NC(=O)[C@H](CO)NC(=O)[C@@H](NC(=O)[C@@H]1CCCN1C(=O)[C@H](Cc1c[nH]c2ccccc12)NC(=O)[C@H](CCC(=O)O)NC(C)=O)[C@@H](C)O)[C@@H](C)CC)C(=O)O [E^RhWPTSII]
Ki [3]: > 50 µM

CC(=O)[O-].CC(=O)[O-].CC(=O)[O-].CC(=O)[O-].[Rh+2].[Rh+2] [Rh2(OAc)4, rhodium(II) acetate]
Ki ([5]; n=3, read-out: Ki (inhibitor equilibrium dissociation constant)): 13 ± 5 µM

CC(=O)N[C@H](C(=O)N[C@@H](CCC(N)=O)C(=O)N[C@@H](CC(=O)O)C(=O)N[C@H](C(=O)N[C@@H](CCCNC(=N)N)C(=O)N[C@@H](CC(C)C)C(=O)O)[C@@H](C)O)C(C)C [VQDTRL]
CALP affinity [5]: weak CALP affinity | Ki [3]: 0.7 µM

Ac-EVQSTRF-OH [EVQSTRF]
Ki [6]: > 1000 µM

Ac-EVQSTRF-OH [E^RhVQSTRF]
Ki [6]: > 15 µM

Ac-QLDVTR-OH [QLDVTR]
Ki [7]: > 500 µM

E3cH: E3 coil peptide with histidine moved to position c (Ac-EISALEKEISHLEQEISALEK)
melting temperature (Tm) of coiled coil [1]: 47.0 °C

E3gE: E3 coil peptide with glutamate at position g (Ac-EISALEKEISALEQEISALEK)
melting temperature (Tm) of coiled coil [1]: 50.2 °C

E3gF: E3 coil control peptide with non-coordinating phenylalanine at position g (Ac-EISALEKFISALEQEISALEK) [reference compound]
melting temperature (Tm) of coiled coil [1]: 39.5 °C

E3gM: E3 coil peptide with methionine at position g (Ac-EISALEKMISALEQEISALEK)
melting temperature (Tm) of coiled coil [1]: > 70 °C

QLD^RhVTR: metallopeptide derived from a non-binding, scrambled control sequence (Ac-QLDVTR; also: rhodium(II) metalated, site not placed)
CALP affinity [5]: comparable
